The text below walks through data of the SangsterLogP compilation.

This series is described as follows: method code SF-AS, from DOI: 10.1016/0223-5234(96)88212-2. The settings on record: pH 7.4.

A word on the logD: it is the decadic logarithm of the distribution of all forms, ionised or not, between an organic phase and buffer at a given pH. As to `Clc1ccccc1N1CCN(CCCOn2nnc3ccccc32)CC1`, the logD is 3.6.

In the case of `Clc1ccccc1N1CCN(CCn2nnc3ccccc32)CC1`, the logD turned out to be 3.35.
